US5541186A, “Sulfonylaminopyrimidines” (Hoffmann-La Roche Inc., priority 1993, dated 1996)

Experiments:
human ETA receptors = target: T1, human ETA receptors (Homo sapiens, UniProt P25101); test: Inhibition of endothelin binding to recombinant ETA receptors; settings: 125I-endothelin 20 pM; 20° C. for 2 hours or 4° C. for 24 hours; baculovirus-insect cell membranes; read-out: IC50 (concentration required to inhibit 50% of the specific binding of 125I-endothelin)
T1 construct: made in house
T1 sequence (P25101 21-427): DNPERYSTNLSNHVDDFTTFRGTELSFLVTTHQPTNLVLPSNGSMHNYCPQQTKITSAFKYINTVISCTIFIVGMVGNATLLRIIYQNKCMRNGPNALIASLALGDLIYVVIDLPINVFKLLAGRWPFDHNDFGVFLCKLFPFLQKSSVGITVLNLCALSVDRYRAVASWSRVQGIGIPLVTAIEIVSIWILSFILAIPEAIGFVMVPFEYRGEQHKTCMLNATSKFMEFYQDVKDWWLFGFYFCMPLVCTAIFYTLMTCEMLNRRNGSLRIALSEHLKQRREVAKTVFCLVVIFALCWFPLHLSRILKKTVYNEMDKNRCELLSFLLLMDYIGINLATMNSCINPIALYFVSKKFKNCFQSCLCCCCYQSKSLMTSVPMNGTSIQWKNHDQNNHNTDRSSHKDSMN
Experimental: I: Inhibition of endothelin binding to recombinant ETA receptors
A cDNA coding for human ETA receptors of human placenta was cloned (M. Adachi, Y.-Y. Yang, Y. Furuichi and C. Miyamoto, BBRC 180, 1265-1272) and expressed in the baculovirus-insect cell system. Baculovirus-infected insect cells from a 23 l fermenter are centrifuged off (3000×g, 15 minutes, 4° C.) 60 hours after the infection, re-suspended in Tris buffer (5 mM, pH 7.4, 1 mM MgCl2) and again centrifuged. After a further re-suspension and centrifugation the cells are suspended in 800 ml of the same buffer and […] at -120° C. The cells disintegrate when the suspension in this hypotonic buffer mixture is thawed. After a repeated freeze-drying/thawing cycle the suspension is homogenized and centrifuged (25000 ×g, 15 minutes, 4° C.). After suspension in Tris buffer (75 mM, pH 7.4, 25 mM MgCl2, 250 mM saccharose) 1 ml aliquots (protein content about 3.5 mg/ml) are stored at -85° C.
For the binding assay, the […] membrane preparations are thawed and, after centrifugation at 20° C. and 25000 g for 10 minutes, re-suspended in assay buffer (50 mM Tris buffer, pH 7.4, containing 25 mM MnCl2, 1 mM EDTA and 0.5% bovine serum albumin). […] of this membrane suspension containing […] of protein are incubated with […] of ^125 I-endothelin (specific activity 2200 Ci/mMol) in assay buffer (25000 cpm, final concentration 20 pM) and […] of assay buffer containing varying concentrations of test compound. The incubation is carried out at 20° C. for 2 hours or at 4° C. for 24 hours. The separation of free and membrane-bound radio-ligands is carried out by filtration over a glass fiber filter.
The inhibitory activity of compounds of formula I determined in this test procedure is given in Table 1 as the IC50, i.e. as the concentration […] which is required to inhibit 50% of the specific binding of ^125 I-endothelin.

[1] = test system: endothelin-induced contractions in isolated rat aorta rings; test: Inhibition of endothelin-induced contractions in isolated rat aorta rings; format: cell-based, rat (adult Wistar-Kyoto); settings: endothelin-1, no antagonist; half-maximum contraction; read-out: EC50 of endothelin in the absence of test compounds
Experimental: II. Inhibition of endothelin-induced contractions in isolated rat aorta rings
Rings with a length of 5 mm were cut out from the thorax aorta of adult Wistar-Kyoto rats. The endothelium was removed by lightly rubbing the internal surface. Each ring was immersed at 37° C. in 10 ml of Krebs-Henseleit solution in an isolated bath while gassing with 95% O2 and 5% CO2. The isometric stretching of the tings was measured. The rings were stretched to a pre-tension of 3 g. After incubation for 10 minutes with the test compound or vehicle cumulative dosages of endothelin-1 were added. The activity of the test compound was ascertained by the observed shift to the right of the dosage-activity curve of endothelin-1 in the presence of different concentrations of antagonist. This shift to the right (or "dose ratio", DR) corresponds to the quotient from the EC50 values of endothelin-1 in the presence and in the absence of antagonist, with the EC50 value denoting the endothelin concentration required for a half-maximum contraction.
The corresponding PA2 value, which is a measure of the activity of the test compound, was calculated using a computer programme according to the following equation from the "dose ratio" DR for each individual dosage-activity curve.
pA2 =log(DR-1)-log(antagonist-concentration)
The EC50 of endothelin in the absence of test compounds is 0.3 nM.

[2] = test system: "stroke-prone", spontaneously hypertensive rats; test: In vivo blood pressure in pathophysiologically relevant rat model (telemetry); settings: 30 mg/kg in gum arabic, by probe
Experimental: A telemetric system (PA-C40 implant) was implanted into "stroke-prone", spontaneously hypertensive rats under anaesthesia in order that the arterial blood pressure and the heart rate could be measured continuously. The animals were left to recover for 2 weeks after the operation.
The corresponding test compound (30 mg/kg in gum arabic) was finally administered using a probe and the blood pressure was registered continuously. It became evident that compounds of formula I caused a fall in blood pressure, the administration of gum arabic alone (placebo control) having no significant effect on the blood pressure.

Molecule | IC50 (human ETA receptors) [nM] | EC50 [1] [nM] | % Decrease in the average arterial blood pressure (mm Hg) [2] [%]
COc1ccccc1Oc1c(NS(=O)(=O)c2ccc(C(C)(C)C)cc2)nc(N2CCOCC2)nc1OCCOC(=O)Nc1ccco1 [Example 75, furan-2-ylcarbamicacid 2-[6-(4-tert-butyl-phenylsulfonylamino)-5-(2-methoxy-phenoxy)-2-morpholin-4-yl-pyrimidin-4-yloxy]-ethyl ester] | 3 |  | 
COCCc1nc(NS(=O)(=O)c2ccc3c(c2)OCO3)c(Oc2cc(OC)ccc2Cl)c(OCCOC(=O)Nc2ccccn2)n1 [Example 10, pyridine-2-ylcarbamic acid 2-[6-(1,3-benzodioxol-5-ylsulfonylamino)-5-(2-chloro-5-methoxy-phenoxy)-2-(2-methoxyethyl)-pyrimidin-4-yloxy]-ethyl ester] | 1 |  | 
COc1ccc(S(=O)(=O)Nc2ncnc(OCCOC(=O)Nc3ccccn3)c2Oc2ccccc2OC)cc1CCC(=O)N1CCOCC1 [Example 120, pyridin-2-ylcarbamic acid 2-[6-[4-methoxy-3-(3-morpholin-4-yl-3-oxo-propyl)-phenylsulfonylamino]-5-(2-methoxy-phenoxy)-pyrimidin-4-yloxy]-ethyl ester] | 7 |  | 
endothelin: endothelin-1, agonist added in cumulative dosages to the rat aorta rings |  | 0.3 | 
COc1ccc(Cl)c(Oc2c(NS(=O)(=O)c3ccc4c(c3)OCO4)ncnc2OCCOC(=O)OCc2ccccn2)c1 [Example 140, carboxylic acid 2-[6-(1,3-benzodioxol-5-ylsulfonylamino)-5-(2-chloro-5-methoxy-phenoxy)-pyrimidin-4-yloxy]-ethyl ester pyridin-2-ylmethyl ester] | 9 |  | 
COc1ccccc1Oc1c(NS(=O)(=O)c2ccc(C(C)(C)C)cc2)nc(-c2ncccn2)nc1OCCOC(=O)Nc1ccccn1 [Example 70, pyridin-2-ylcarbamic acid 2-[6-(4-tert-butyl-phenylsulfonylamino)-5-(2-methoxy-phenoxy)-2,2'-bipyrimidin-4-yloxy]-ethyl ester] | 6 |  | 30
COc1ccc(Cl)c(Oc2c(NS(=O)(=O)c3ccc(C(C)(C)C)cc3)ncnc2OCCNC(=O)Nc2ccncc2)c1 [Example 134] | 44 |  | 
